Laboratory results as given in the supplement of paper PMC10307832.

Assays:
Experiment in all cases: relative viability (nuclei count vs DMSO), 5 days (fraction); higher = more cells survive
[1] = compound: C1CNCCC1C2=CC(=NN2)C3=CC=NC=C3 + Cc1cc(Nc2cc(N3CCN(C)CC3)nc(Sc3ccc(NC(=O)C4CC4)cc3)n2)n[nH]1 [Tozasertib] (partner 0.1 µM)
Method in brief: (§1)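 Lung cancer cell lines were seeded in 1536-well plates and dosed by pin tool the next day, with either a single drug or a fixed anchor-drug dose combined with five library-drug doses (not always all listed) spaced in √10 steps. Five days later, one step fixed the cells and stained their nuclei (final 0.05% Triton X-100, 1% formaldehyde, 1 ug/ml Hoechst), and nuclei were counted on 4× images. Relative viability is the nuclei count in treated wells divided by the count in vehicle wells, and each value is the median of duplicate plates.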

Tanzisertib + OSI-027 = compound: O[C@H]1CC[C@H](Nc2ncc3nc(Nc4c(F)cc(F)cc4F)n([C@H]4CCOC4)c3n2)CC1 [Tanzisertib] + COc1cccc2cc(-c3nc([C@H]4CC[C@H](C(=O)O)CC4)n4ncnc(N)c34)[nH]c12 [OSI-027] (partner 0.5 µM)
Method in brief: as §1

Tanzisertib + Alpelisib = compound: O[C@H]1CC[C@H](Nc2ncc3nc(Nc4c(F)cc(F)cc4F)n([C@H]4CCOC4)c3n2)CC1 [Tanzisertib] + Cc1nc(NC(=O)N2CCC[C@H]2C(N)=O)sc1-c1ccnc(C(C)(C)C(F)(F)F)c1 [Alpelisib] (partner 2 µM)
Method in brief: as §1

Tanzisertib + Vorinostat = compound: O[C@H]1CC[C@H](Nc2ncc3nc(Nc4c(F)cc(F)cc4F)n([C@H]4CCOC4)c3n2)CC1 [Tanzisertib] + O=C(CCCCCCC(=O)Nc1ccccc1)NO [Vorinostat] (partner 1 µM)
Method in brief: as §1

## UMC-11
[1]; first compound 0.08 µM
  relative viability: 0.196
[1]; first compound 0.8 µM
  relative viability: 0.214
[1]; first compound 2.53 µM
  relative viability: 0.205
[1]; first compound 8 µM
  relative viability: 0.207
Tanzisertib + OSI-027; first compound 0.08 µM
  relative viability: 0.532
Tanzisertib + OSI-027; first compound 0.253 µM
  relative viability: 0.391
Tanzisertib + OSI-027; first compound 0.8 µM
  relative viability: 0.537
Tanzisertib + OSI-027; first compound 2.53 µM
  relative viability: 0.439
Tanzisertib + OSI-027; first compound 8 µM
  relative viability: 0.477
Tanzisertib + Alpelisib; first compound 0.08 µM
  relative viability: 0.835
Tanzisertib + Alpelisib; first compound 0.253 µM
  relative viability: 0.987
Tanzisertib + Alpelisib; first compound 0.8 µM
  relative viability: 0.999
Tanzisertib + Alpelisib; first compound 2.53 µM
  relative viability: 0.956
Tanzisertib + Alpelisib; first compound 8 µM
  relative viability: 1.13
Tanzisertib + Vorinostat; first compound 0.08 µM
  relative viability: 0.41
Tanzisertib + Vorinostat; first compound 0.253 µM
  relative viability: 0.401
Tanzisertib + Vorinostat; first compound 0.8 µM
  relative viability: 0.438
Tanzisertib + Vorinostat; first compound 2.53 µM
  relative viability: 0.404
Tanzisertib + Vorinostat; first compound 8 µM
  relative viability: 0.388
